Results published in patent US10131663B2, “Chemical compounds” (AstraZeneca AB, priority 2016, dated 2018).
pIC50: −log10 of the molar value. Values after ≈ are worked out from the molar mass of the structure shown.

How the values were obtained:
[1] = Human plasma protein binding (equilibrium dialysis); type: in vitro ADME; conditions: dialysis 18 hours
Description: The automated equilibrium dialysis assay in human plasma uses the RED (Rapid Equilibrium Dialysis) Device and sample handling. The assay generally runs over two to three days including delivery of results. After dialysis for 18 hours, plasma and buffer samples are prepared for analysis by liquid chromatography and mass spectrometry. Samples are generally tested in singlicates and quantified by LC/MSMS by using a 7-point calibration curve in plasma. The compounds are pooled together in plasma pools up to 10 compounds. Three reference compounds are used in each run, Propranolol, Metoprolol and Warfarin. Warfarin is used as a control in each pool and Propranolol and Metoprolol are placed randomly in each run. An in-house Excel macro is used for preparation of files for the robot and the mass spectrometer and is also used for the calculations of fraction unbound (fu %) in plasma.

[2] = biological target: recombinant human Estrogen Receptor alpha ligand binding domain (ER alpha-LBD (GST)) (Homo sapiens (Human), UniProt P03372); assay: ERα binding assay (LanthaScreen TR-FRET competition); conditions: TR-FRET, displacement of Fluormone ES2
recombinant human Estrogen Receptor alpha ligand binding domain (ER alpha-LBD (GST)), sequence (P03372 307-554): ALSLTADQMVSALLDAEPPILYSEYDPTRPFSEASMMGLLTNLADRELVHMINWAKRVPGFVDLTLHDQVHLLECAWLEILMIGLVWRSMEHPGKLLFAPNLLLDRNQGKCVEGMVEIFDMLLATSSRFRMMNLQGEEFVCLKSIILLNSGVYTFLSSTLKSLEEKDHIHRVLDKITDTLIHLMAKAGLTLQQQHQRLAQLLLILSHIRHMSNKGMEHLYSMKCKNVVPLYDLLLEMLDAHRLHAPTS
Description: The ability of compounds to bind to isolated Estrogen Receptor Alpha Ligand binding domain (ER alpha-LBD (GST)) was assessed in competition assays using a LanthaScreen™ Time-Resolved Fluorescence Resonance Energy Transfer (TR-FRET) detection end-point. […] The assay principle is that ER alpha-LBD (GST) is added to a fluorescent ligand to form a receptor/fluorophore complex. A terbium-labelled anti-GST antibody (Product code PV3551) is used to indirectly label the receptor by binding to its GST tag, and competitive binding is detected by a test compound's ability to displace the fluorescent ligand, resulting in a loss of TR-FRET signal between the Tb-anti-GST antibody and the tracer. The assay was performed as follows with all reagent additions carried out using the Beckman Coulter BioRAPTR FRD microfluidic workstation: • 1. Acoustic dispense 120 nL of the test compound into a black low volume 384 well assay plates. • 2. Prepare 1×ER alpha-LBD/Tb-antiGST Ab in ES2 screening buffer and incubate for 15 minutes. • 3. Dispense 6 μL of the 1×[…]/Tb-anti-GST Ab reagent into each well of the assay plate followed by 6 μL of Fluorophore reagent into each well of the assay plate • 4. Cover the assay plate to protect the reagents from light and evaporation, and incubate at room temperature for 4 hours. • 5.
TR-FRET dose response data obtained with each compound was exported into a suitable software package (such as Origin or Genedata) to perform curve fitting analysis. Competitive ER alpha binding was expressed as an IC50 value.

[3] = biological target: Estrogen Receptor (ERα) in MCF-7 cells (Homo sapiens (Human), UniProt P03372); assay: MCF-7 ER down-regulation assay (immuno-fluorescence); type: cell-based
Estrogen Receptor (ERα) in MCF-7 cells, sequence (P03372 whole entry): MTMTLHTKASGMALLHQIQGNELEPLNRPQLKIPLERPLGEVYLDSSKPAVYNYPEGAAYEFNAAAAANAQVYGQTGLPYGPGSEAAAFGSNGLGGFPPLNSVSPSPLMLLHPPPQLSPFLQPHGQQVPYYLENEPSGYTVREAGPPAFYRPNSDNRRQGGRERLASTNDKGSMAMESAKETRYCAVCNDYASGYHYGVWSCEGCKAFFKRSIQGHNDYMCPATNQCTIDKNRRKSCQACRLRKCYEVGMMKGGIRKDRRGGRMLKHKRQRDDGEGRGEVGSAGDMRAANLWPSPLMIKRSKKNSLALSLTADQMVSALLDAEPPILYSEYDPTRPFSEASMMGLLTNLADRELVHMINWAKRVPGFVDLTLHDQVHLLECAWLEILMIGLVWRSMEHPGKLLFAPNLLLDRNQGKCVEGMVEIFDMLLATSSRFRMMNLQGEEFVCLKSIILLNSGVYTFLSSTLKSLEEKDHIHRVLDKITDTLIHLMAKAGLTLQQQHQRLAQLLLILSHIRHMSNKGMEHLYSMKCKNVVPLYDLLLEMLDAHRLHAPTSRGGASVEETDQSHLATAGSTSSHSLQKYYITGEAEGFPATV
Description: The Echo uses acoustic technology to perform direct microplate-to-microplate transfers of DMSO compound solutions to assay plates. […] Cells were fixed at room temperature for 20 mins before being washed two times with 250 μL PBS/Proclin (PBS with a Biocide preservative) using a BioTek platewasher, 40 μL of PBS/Proclin was then added to all wells and the plates stored at 4° C. The fixing method described above was carried out on the Integrated Echo 2 workcell. Immunostaining was performed using an automated AutoElisa workcell. […] The plates were incubated overnight at 4° C. […] The mean total intensity was normalized for cell number giving the total intensity per cell. The data was exported into a suitable software package (such as Origin) to perform curve fitting analysis.

[4] = Thermodynamic solubility (shake-flask); type: physicochemical; conditions: aqueous phosphate buffer, 25 °C, pH 7.4, aqueous buffer, thermodynamic from solid, aqueous phosphate buffer pH 7.4, 24 hours
Description: The thermodynamic solubility of a research compound is measured under standard conditions. It is a shake-flask approach that uses 10 mM DMSO solutions which are supplied from the Compound Managements liquid store and is a high throughput method. The dried compounds are equilibrated in an aqueous phosphate buffer (pH 7.4) for 24 hours at 25° C., the portion with the dissolved compound is then separated from the remains. The solutions are analyzed and quantified using UPLC/MS/MS, QC-samples are incorporated in each assay-run to ensure the quality of the assay.

hERG potassium channel = hERG potassium channel (Homo sapiens (Human), UniProt Q12809); assay: hERG binding assay (automated patch clamp, CHO cells); type: cell-based; conditions: CHO cell line, Nanion Syncropatch 384PE
hERG potassium channel, sequence (Q12809 whole entry): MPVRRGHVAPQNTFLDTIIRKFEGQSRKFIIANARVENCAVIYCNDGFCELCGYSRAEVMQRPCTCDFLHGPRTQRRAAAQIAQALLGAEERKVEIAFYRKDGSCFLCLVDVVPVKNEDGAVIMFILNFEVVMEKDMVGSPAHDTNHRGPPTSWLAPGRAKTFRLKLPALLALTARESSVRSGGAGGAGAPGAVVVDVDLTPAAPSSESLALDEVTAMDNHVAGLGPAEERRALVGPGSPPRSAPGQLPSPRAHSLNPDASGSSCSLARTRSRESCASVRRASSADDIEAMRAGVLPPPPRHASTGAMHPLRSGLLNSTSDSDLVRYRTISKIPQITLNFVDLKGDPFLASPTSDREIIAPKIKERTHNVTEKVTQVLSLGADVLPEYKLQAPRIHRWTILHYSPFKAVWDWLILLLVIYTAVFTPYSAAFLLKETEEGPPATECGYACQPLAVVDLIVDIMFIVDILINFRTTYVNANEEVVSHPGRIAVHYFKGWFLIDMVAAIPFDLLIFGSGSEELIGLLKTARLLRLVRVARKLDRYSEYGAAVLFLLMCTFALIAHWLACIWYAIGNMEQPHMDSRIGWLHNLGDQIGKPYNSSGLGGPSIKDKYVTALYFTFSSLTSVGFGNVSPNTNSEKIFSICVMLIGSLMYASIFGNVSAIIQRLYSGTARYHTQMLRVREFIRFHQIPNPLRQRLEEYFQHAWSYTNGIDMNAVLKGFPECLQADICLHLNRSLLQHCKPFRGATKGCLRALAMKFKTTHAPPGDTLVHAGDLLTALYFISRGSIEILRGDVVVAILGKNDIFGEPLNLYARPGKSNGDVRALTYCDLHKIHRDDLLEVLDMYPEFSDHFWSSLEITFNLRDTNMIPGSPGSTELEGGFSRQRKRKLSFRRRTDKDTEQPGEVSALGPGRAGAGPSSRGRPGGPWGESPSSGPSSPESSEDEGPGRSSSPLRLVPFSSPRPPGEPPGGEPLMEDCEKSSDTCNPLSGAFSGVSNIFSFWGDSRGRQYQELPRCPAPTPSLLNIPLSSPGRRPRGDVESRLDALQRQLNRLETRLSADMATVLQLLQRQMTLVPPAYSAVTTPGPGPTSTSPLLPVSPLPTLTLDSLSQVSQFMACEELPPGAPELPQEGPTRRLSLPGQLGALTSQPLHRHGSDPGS
Description: Reagent preparations include: • 1.
Cell preparations: • 1. If using cell culture; cells to be incubated at 30° C. for approximately 4-6 days prior to being used. Day of assay lift cells using accutase and re-suspend in 20 ml cell buffer to a density of 0.8 to 1e6 cells/ml. • 2. If using assay ready cryovials; rapidly thaw two cryovials at 37° C. and slowly pipette into 23 ml external solution • 3.
All compounds were acoustically dispensed in quadruplicate using a Labcyte Echo. […] Fill 384 well medium resistance 4 hole chips with 40 μl external buffer and perfuse internal buffer to the underside of plate. • 2. Dispense 20 μl of cells into each well of the chip followed by 20 μl of seal enhancer. • 3. Remove 40 μl of reagent from each well to the wash station, leaving a residual volume of 40 μl • 4. Dispense 40 μl of reference buffer with a removal step of 40 μl after 3 min, repeat this step. • 5.
hERG-mediated currents were elicited using a voltage step protocol consisting of acontinuous holding voltage of −80 mV, with a 500 ms step to 60 mV followed by a 500 ms step to −40 mV every 15 seconds. hERG current magnitude was measured automatically from the leak-subtracted traces by the Nanion software by taking the peak of the hERG “tail” current at −40 mV every 15 seconds and taking the last three of these responses for each concentration to generate the concentration-effect curve.
Calculation of results is performed using APC package within Genedata. For the routine normalization of well data with Neutral and Inhibitor control well groups as reference, GeneData Assay Analyzer uses the following equation to normalize the signal values to the desired signal range:
[formula] • x is the measured raw signal value of a well • is the median of the measured signal values for the Central Reference (Neutral) wells on a plate • is the median of the measured signal values for the Scale Reference (Inhibitor) wells on a plate • CR is the desired median normalized value for the Central Reference (Neutral) • SR is the desired median normalized value for the Scale Reference (Inhibitor)

[5] = log D (shake flask, 1-octanol/aqueous buffer); type: physicochemical
From the text: The lipophilicity of a drug is an important physical property which may influence many biological and metabolic properties of a compound, for example the absorption, distribution, metabolism, excretion and toxicity profiles of a compound. The distribution coefficient between 1-octanol and aqueous buffer, Log DO/W, at pH 7.4, is the most commonly used measurement of the lipophilicity of a compound. The current method for measurement of Log DO/W is based on the traditional shake flask technique, but with the modification of measuring compounds in mixtures of ten at a time using UPLC with quantitative mass spectrometry (MS) as a method to measure the relative octanol and aqueous concentrations. […] An additional QC sample Caffeine, with low Log D, are used and randomly placed in all runs. The method has been thoroughly validated against the previous shake flask methodologies.

[6] = 1-octanol/aqueous buffer, pH 7.4, pH 7.4, 1-octanol/aqueous buffer

SMILES	Human plasma protein binding (% free) [1] [% free]	pIC50 [2]	pIC50 [3]	solubility at 24 h [4] [µM]	pIC50 (hERG potassium channel)	logD [5, 6]	logD ([5]; pH 7.4, 1-octanol/aqueous buffer)	DC50 ([3]; read-out: ER down regulation IC50 value) [nM]
C[C@@H]1Cc2c(ccc3[nH]nc(F)c23)[C@@H](c2ccc(NC3CN(CCCF)C3)c(F)n2)N1CC(F)(F)CO [Example 62, 2,2-difluoro-3-((6S,8R)-1-fluoro-6-(6-fluoro-5-((1-(3-fluoropropyl)azetidin-3-yl)amino)pyridin-2-yl)-8-methyl-3,6,8,9-tetrahydro-7H-pyrazolo[4,3-f]isoquinolin-7-yl)propan-1-ol]	19	9.00	9.89	784 (≈ 411 µg/mL)	< 4.40	2.8	–	–
C[C@@H]1Cc2c(ccc3[nH]nc(F)c23)[C@@H](c2ccc(NC3CN(CCCF)C3)c(F)n2)N1CC(F)(F)F [Example 39, 2-fluoro-6-((6S,8R)-1-fluoro-8-methyl-7-(2,2,2-trifluoroethyl)-6,7,8,9-tetrahydro-3H-pyrazolo[4,3-f]isoquinolin-6-yl)-N-(1-(3-fluoropropyl)azetidin-3-yl)pyridin-3-amine]	6.8	9.03	10.32	257 (≈ 132 µg/mL)	4.85	–	3.7	–
C[C@@H]1Cc2c(ccc3[nH]ncc23)[C@@H](c2ccc(OC3CN(CCCF)C3)cn2)N1CC(F)(F)CO [Example 58, 2,2-difluoro-3-((6S,8R)-6-(5-((1-(3-fluoropropyl)azetidin-3-yl)oxy)pyridin-2-yl)-8-methyl-3,6,8,9-tetrahydro-7H-pyrazolo[4,3-f]isoquinolin-7-yl)propan-1-ol]	–	8.68	9.25	633 (≈ 310 µg/mL)	< 4.40	2.4	–	–
C[C@@H]1Cc2c(ccc3[nH]nc(F)c23)[C@@H](c2cnc(NC3CN(CCCF)C3)cn2)N1CC(F)(F)F [Example 38, 5-((6S,8R)-1-fluoro-8-methyl-7-(2,2,2-trifluoroethyl)-6,7,8,9-tetrahydro-3H-pyrazolo[4,3-f]isoquinolin-6-yl)-N-(1-(3-fluoropropyl)azetidin-3-yl)pyrazin-2-amine]	13	9.16	9.72	794 (≈ 393 µg/mL)	4.74	3.1	–	–
C[C@@H]1Cc2c(ccc3[nH]ncc23)[C@@H](c2c(F)cc(NC3CN(CCCF)C3)cc2F)N1CC(C)(F)CO (single isomer, unassigned) [Example 23]	9.5	7.82	–	339 (≈ 176 µg/mL)	–	3.1	–	0.15
C[C@@H]1Cc2c(ccc3[nH]ncc23)[C@@H](c2cnc(NC3CN(CCCF)C3)cn2)N1CC(F)F [Example 50, 5-((6S,8R)-7-(2,2-difluoroethyl)-8-methyl-6,7,8,9-tetrahydro-3H-pyrazolo[4,3-f]isoquinolin-6-yl)-N-(1-(3-fluoropropyl)azetidin-3-yl)pyrazin-2-amine]	–	8.57	9.33	748 (≈ 344 µg/mL)	4.89	2.1	–	–
CCOc1cc(NC2CN(CCCF)C2)ccc1[C@@H]1c2ccc3[nH]ncc3c2C[C@@H](C)N1CC1(F)CC1 [Example 20, N-(3-ethoxy-4-((6S,8R)-7-((1-fluorocyclopropyl)methyl)-8-methyl-6,7,8,9-tetrahydro-3H-pyrazolo[4,3-f]isoquinolin-6-yl)phenyl)-1-(3-fluoropropyl)azetidin-3-amine]	29	7.82	9.44	730 (≈ 372 µg/mL)	–	2.8	–	–
COc1cc(OC2CN(CCCF)C2)ccc1[C@@H]1c2ccc3[nH]ncc3c2C[C@@H](C)N1CC(F)F [Example 22, (6S,8R)-7-(2,2-difluoroethyl)-6-(4-((1-(3-fluoropropyl)azetidin-3-yl)oxy)-2-methoxyphenyl)-8-methyl-6,7,8,9-tetrahydro-3H-pyrazolo[4,3-f]isoquinoline]	4.6	8.24	10.21	70 (≈ 34.2 µg/mL)	–	4	–	–
COc1cc(NC2CN(CCCF)C2)ccc1[C@@H]1c2ccc3[nH]ncc3c2C[C@@H](C)N1CC1(CF)COC1 [Example 10, N-(4-((6S,8R)-7-((3-(fluoromethyl)oxetan-3-yl)methyl)-8-methyl-6,7,8,9-tetrahydro-3H-pyrazolo[4,3-f]isoquinolin-6-yl)-3-methoxyphenyl)-1-(3-fluoropropyl)azetidin-3-amine]	23	8.10	9.59	634 (≈ 333 µg/mL)	–	2.8	–	–
C[C@@H]1Cc2c(ccc3[nH]ncc23)[C@@H](c2cnc(NC3CN(CCCF)C3)cn2)N1CC1(F)CC1 [Example 55, 5-((6S,8R)-7-((1-fluorocyclopropyl)methyl)-8-methyl-6,7,8,9-tetrahydro-3H-pyrazolo[4,3-f]isoquinolin-6-yl)-N-(1-(3-fluoropropyl)azetidin-3-yl)pyrazin-2-amine]	–	8.09	8.96	987 (≈ 461 µg/mL)	< 4.40	2.1	–	–
C[C@@H]1Cc2c(ccc3[nH]ncc23)[C@@H](c2ccc(N(C)C3CN(CCCF)C3)cn2)N1CC1(F)CC1 [Example 57, 6-((6S,8R)-7-((1-fluorocyclopropyl)methyl)-8-methyl-6,7,8,9-tetrahydro-3H-pyrazolo[4 3-f]isoquinolin-6-yl)-N-(1-(3-fluoropropyl)azetidin-3-yl)-N-methylpyridin-3-amine]	–	8.30	9.44	615 (≈ 296 µg/mL)	4.80	2.9	–	–
